Measured values from patent US6855728B2, “Small-molecule modulators of hepatocyte growth factor / scatter factor activities” (North Shore-Long Island Jewish Health System, priority 2001, dated 2005).

Assays:
[1] = system: HGF/SF induced proliferation of HUVEC; test: Endothelial cell (HUVEC) proliferation assay in the presence of exogenously-added HGF/SF; format: cell-based, human; conditions: with HGF/SF; for inhibition at 2 µg/mL / Activity at 2 microgram/ml With HGF/SF (result in words): 2 microgram/ml; for inhibition at 2 µg/mL: read-out: Activity at 2 microgram/ml With HGF/SF: inhibition (blocked SF); for inhibition at 6 µg/mL: read-out: Activity at 6 microgram/ml With HGF/SF: inhibition (blocked SF); for Stimulation at 6-12 micrograms/ml With: stimulation of endothelial cell proliferation
Excerpt: To evaluate inhibitors of activity, compounds may be evaluated directly for anti-proliferative activities, such as the inhibition of cellular proliferation, inhibition of tumor growth, inhibition of scatter, and inhibition of gene expression, and may also be evaluated on their ability to inhibit activity when exposed to cells together with. In such instances, the scatter and/or proliferative activities induced by added will be inhibited by the attendant presence of an inhibitory compound of the invention.
(§1) Cell proliferation assays Endothelial cells (HUVECs) were seeded in 48 well plates at a density of 10,000 to 20,000 cells per well in the normal growth medium (EGM-2-Clonetics) containing 2% fetal bovine serum, FGF, VEGF, IGF, ascorbic acid, EGF, GA, heparin and hydrocortisone. The cells were grown normally in the growth medium for 24 hr at 37 degrees C. and 5% CO2. The cells were then rinsed with RPMI-1% BSA and starved for 1-2 hrs. The stock solutions of all the compounds were made at a concentration of 10 mg/ml in DMSO and diluted in RPMI-1% BSA at a final concentrations of 1 to 12 microgram/ml. The cells were then washed and treated with the compounds and incubated for another 24 hr at 37 degrees C. Then ^3H thymidine (0.5 microgram/ml in RPMI-BSA) was added to the cells and incubated at 37 degrees C. for 4 to 5 hours. The unincorporated thymidine was removed by washing the cells four times with 1× PBS. Then the cells were lysed with 0.5M NaOH for 30 min and the radioactivity counted in the beta counter.

[2] = system: Endothelial cells (HUVECs); test: Endothelial cell (HUVEC) proliferation assay, 3H thymidine incorporation, compound without added growth factor; format: cell-based, human; conditions: for Activity at 6 microgram/ml Without HGF/SF (result in words) / inhibition at 6 µg/mL: 6 microgram/ml; for inhibition at 6 µg/mL: inhibition of HUVEC proliferation; for Activity at 2 microgram/ml Without HGF/SF: stimulation: stimulation of HUVEC proliferation
Protocol: as §1, with “counter. […]” for “counter.”

[3] = Homo sapiens, inhibition of HUVEC proliferation
[4] = Homo sapiens, 6 microgram/ml, inhibition of HUVEC proliferation
[5] = inhibition of endothelial cell proliferation
[6] = 6-12 micrograms/ml, without HGF/SF
[7] = 6-12 micrograms/ml, without HGF/SF, stimulation of endothelial cell proliferation

Cc1nn(C(=O)C(C)(C)C)c(C)c1Cc1c(F)cccc1Cl [1-(4-(2-chloro-6-fluorobenzyl)-3,5-dimethyl-1H-pyrazole-1-yl)2,2-dimethylpropan-1-one]
inhibition at 2 µg/mL [1, 3]: 25% | inhibition at 6 µg/mL [1, 4]: 25% | Activity at 2 microgram/ml Without HGF/SF (result in words) ([2]; without HGF/SF): No effect | Activity at 6 microgram/ml Without HGF/SF (result in words) ([2]; without HGF/SF): No effect

Cc1nn(S(=O)(=O)c2ccc(Cl)cc2)c(C)c1Cc1c(Cl)cccc1Cl [1-((4-chlorophenyl)sulfonyl)-4-(2,6-dichlorobenzyl)-3,5-dimethyl-1H-pyrazol]
Activity at 2 microgram/ml With HGF/SF (result in words) [1]: No effect | inhibition at 6 µg/mL [1, 4]: 50% | Activity at 2 microgram/ml Without HGF/SF (result in words) ([2]; without HGF/SF): No effect | Activity at 6 microgram/ml Without HGF/SF (result in words) ([2]; without HGF/SF): No effect

Cc1onc(-c2c(Cl)cccc2Cl)c1C(=O)NNC(=S)Oc1ccccc1[N+](=O)[O-] [2-nitrophenyl 2-((3-(2,6-dichlorophenyl)-5-methylisoxazol-4-yl)carbonyl)hydrazine-1-carbothioate]
Activity at 2 microgram/ml With HGF/SF (result in words) [1]: No effect | inhibition at 6 µg/mL [1, 4]: 80% | Activity at 2 microgram/ml Without HGF/SF (result in words) ([2]; without HGF/SF): No effect | inhibition at 6 µg/mL ([2]; Homo sapiens, without HGF/SF): 80%

CC(C)(C)c1n[nH]c(C(C)(C)C)c1Cc1c(F)cccc1Cl [3,5-di(tert-butyl)-4-(2-chloro-6-fluorobenzyl)-1H-pyrazole]
inhibition at 2 µg/mL [1, 3]: 25% | inhibition at 6 µg/mL [1, 4]: 50% | Activity at 2 microgram/ml Without HGF/SF: stimulation ([2]; without HGF/SF): 51% | Activity at 6 microgram/ml Without HGF/SF (result in words) ([2]; without HGF/SF): No effect

Cc1nn(CCC#N)c(C)c1Cc1c(Cl)cccc1Cl [3-(4-(2,6-dichlorobenzyl)-3,5-dimethyl-1H-pyrazol-1-yl)propanenitrile]
inhibition at 2 µg/mL [1, 3]: 36% | inhibition at 6 µg/mL [1, 4]: 65% | Activity at 2 microgram/ml Without HGF/SF (result in words) ([2]; without HGF/SF): No effect | inhibition at 6 µg/mL ([2]; Homo sapiens, without HGF/SF): 34%

O=C(C=Cc1ccc(Br)cc1)c1ccccc1 [3-(4-Bromophenyl)-1-phenylprop-2-en-1-one]
Stimulation/Inhibition at 6-12 micrograms/ml With (result in words) [1]: some additive effect | Stimulation at 1 ug/ml Without HGF/SF ([2]; 1 ug/ml, without HGF/SF, stimulation of endothelial cell proliferation): 40-80% stimulation at 1

Cc1nn(C)c(C)c1Cc1c(F)cccc1Cl [4-(2-chloro-6-fluorobenzyl)-1,3,5-trimethyl-1H-1-pyrazole]
Activity at 2 microgram/ml With HGF/SF (result in words) [1]: No effect | Activity at 6 microgram/ml With HGF/SF: inhibition (blocked SF) ([1]; 6 microgram/ml, inhibition of HUVEC proliferation): by 30% | Activity at 2 microgram/ml Without HGF/SF: stimulation ([2]; without HGF/SF): 50% | Activity at 6 microgram/ml Without HGF/SF (result in words) ([2]; without HGF/SF): No effect

Cc1n[nH]c(C)c1Cc1c(F)cccc1Cl [4-(2-chloro-6-fluorobenzyl)-3,5-dimethyl-1H-pyrazole]
Activity at 2 microgram/ml With HGF/SF (result in words) [1]: No effect | Activity at 6 microgram/ml With HGF/SF (result in words) ([1]; 6 microgram/ml): No effect | Activity at 2 microgram/ml Without HGF/SF: stimulation ([2]; without HGF/SF): 54% | Activity at 6 microgram/ml Without HGF/SF (result in words) ([2]; without HGF/SF): No effect

Cc1cc(C)cc(Sc2ccc3nnc(-c4ccccc4)n3n2)c1 [6-(3,5-Dimethylphenyl) Thio)-3-Phenyl (1,2,4-Triazolo(4,3-b)pyridazine]
inhibition at 1 µg/mL ([1]; Homo sapiens, HUVEC, 1 ug/ml, inhibition of endothelial cell proliferation, read-out: Activity at 1 ug/ml concentration With HGF/SF: inhibition): 30% | Activity at 1 ug/ml concentration Without HGF/SF (result in words) ([2]; 1 ug/ml, without HGF/SF): no significant effect

C(=C1CCCc2c(-c3ccccc3)cc(-c3ccccc3)pc21)c1ccccc1 (stereo not shown) [8-Benzyledene-2,4 Diphenyl-5,6,7,8 Tetrahydrophosphinoline]
Activity at 1 ug/ml concentration With HGF/SF: inhibition ([1]; 1 ug/ml, inhibition of endothelial cell proliferation): 40% inhibition | Activity at 1 ug/ml concentration Without HGF/SF (result in words) ([2]; 1 ug/ml, without HGF/SF): no significant effect

c1ccc2c(c1)cc(-c1cc3ccccc3c3ccccc13)c1ccccc12 [9,9-Biphenanthrene]
Inhibition at 6-12 micrograms/ml With [1, 5]: 20-40% inhibition | Stimulation/Inhibition at 6-12 micrograms/ml Without HGF/SF (result in words) [2, 6]: No effect

C(=C1c2ccccc2-c2ccccc2-c2ccccc21)c1ccc(-c2ccccc2)cc1 [9-biphenyl-4-ylmethylene-9H-tri-benzo(A,C,E)-cycloheptene]
Stimulation at 6-12 micrograms/ml With [1]: 20-30% stimulation | Stimulation at 6-12 micrograms/ml Without HGF/SF [2, 7]: 30-40% stimulation

CC(=O)C1=C(C)C[C@H]2[C@@H]3CC=C4C[C@@H](O)CC[C@]4(C)[C@H]3CC[C@]12C [16 methyl-16 Dehydropregnenolone]
Stimulation at 6-12 micrograms/ml With [1]: 30% stimulation | Stimulation/Inhibition at 6-12 micrograms/ml Without HGF/SF (result in words) [2, 6]: No effect

C[Si](C)(C)c1cccc(-c2ccccc2)c1 [(3-Biphenyl) Trimethyl silane]
Stimulation/Inhibition at 6-12 micrograms/ml With (result in words) [1]: No effect | Stimulation at 6-12 micrograms/ml Without HGF/SF [2, 7]: 40% stimulation

Cc1nn(C(=O)c2ccc(Cl)cc2)c(C)c1Cc1c(F)cccc1Cl [(4-(2-chloro-6-fluorobenzyl)-3,5-dimethyl-1H-pyrazol-1-yl)(4-chlorophenyl)methanone]
inhibition at 2 µg/mL [1, 3]: 30% | inhibition at 6 µg/mL [1, 4]: 90% | Activity at 2 microgram/ml Without HGF/SF: stimulation ([2]; without HGF/SF): 40% | activation at 5 µg/mL ([2]; Homo sapiens, HUVEC, 24 h, 5 microg/ml, stimulation of endothelial cell proliferation): 41% | activation at 10 µg/mL ([2]; Homo sapiens, HUVEC, 24 h, 10 microg/ml, stimulation of endothelial cell proliferation): 35% | inhibition at 6 µg/mL ([2]; Homo sapiens, without HGF/SF): 50%

Cc1nn(C(=O)c2c(Cl)cccc2Cl)c(C)c1Cc1c(F)cccc1Cl [(4-(2-chloro-6-fluorobenzyl)-3,5-dimethyl-1H-pyrazole-1-yl)(2,6-dichlorophenyl)methanone]
inhibition at 2 µg/mL [1, 3]: 23% | inhibition at 6 µg/mL [1, 4]: 90% | Activity at 2 microgram/ml Without HGF/SF (result in words) ([2]; without HGF/SF): not significant | Activity at 6 microgram/ml Without HGF/SF (result in words) ([2]; without HGF/SF): not significant

Cc1nn(C(=O)c2cccs2)c(C)c1Cc1c(F)cccc1Cl [(4-(2-chloro-6-fluorobenzyl)-3,5-dimethyl-1H-pyrazole-1-yl)(2-thienyl)methanone]
Activity at 2 microgram/ml With HGF/SF (result in words) [1]: No effect | inhibition at 6 µg/mL [1, 4]: 61% | Activity at 2 microgram/ml Without HGF/SF (result in words) ([2]; without HGF/SF): No effect | Activity at 6 microgram/ml Without HGF/SF (result in words) ([2]; without HGF/SF): No effect

Cc1nn(-c2onc(-c3c(Cl)cccc3Cl)c2C(=O)NN)c(C)c1Br [(4-bromo-3,5-dimethyl-1H-pyrazol-1-yl)(3-(2,6-dichlorophenyl)isoxazole-4-carbohydrazide)]
Activity at 2 microgram/ml With HGF/SF (result in words) [1]: No effect | Activity at 6 microgram/ml With HGF/SF (result in words) ([1]; 6 microgram/ml): No effect | Activity at 2 microgram/ml Without HGF/SF: stimulation ([2]; without HGF/SF): 74%

CSC(=NS(=O)(=O)c1ccccc1)NNC(=O)c1c(-c2c(Cl)cccc2Cl)noc1C [N1-((2-((3-(2,6-dichlorophenyl)-5-methylisoxazol-4-yl)carbonyl)hydrazino)(methylthio)methylidene)benzene-1-sulfonamide]
Activity at 2 microgram/ml With HGF/SF (result in words) [1]: No effect | inhibition at 6 µg/mL [1, 4]: 25% | Activity at 2 microgram/ml Without HGF/SF (result in words) ([2]; without HGF/SF): No effect | Activity at 6 microgram/ml Without HGF/SF (result in words) ([2]; without HGF/SF): No effect

Cc1onc(-c2c(Cl)cccc2Cl)c1C(=O)NN1CCCCCC1 [N4-azepan-1-yl-3-(2,6-dichlorophenyl)-5-methylisoxazole-4-carboxamide]
Activity at 2 microgram/ml With HGF/SF (result in words) [1]: No effect | inhibition at 6 µg/mL [1, 4]: 50% | Activity at 2 microgram/ml Without HGF/SF (result in words) ([2]; without HGF/SF): No effect | inhibition at 6 µg/mL ([2]; Homo sapiens, without HGF/SF): 50%

Cc1ccc(N=Cc2ccco2)c(C)c1 [N-(furfurylidene)-2,4-xylidine]
Inhibition at 6-12 micrograms/ml With [1, 5]: 50-60% inhibition | Inhibition at 6-12 micrograms/ml Without HGF/SF ([2]; 6-12 micrograms/ml, without HGF/SF, inhibition of endothelial cell proliferation): 30-40% inhibition

Cc1onc(-c2c(Cl)cccc2Cl)c1C(=O)NNc1c(Cl)cccc1Cl [N′4,3-di(2,6-dichlorophenyl)-5-methylisoxazole-4-carbohydrazide]
Activity at 2 microgram/ml With HGF/SF (result in words) [1]: not significant | inhibition at 6 µg/mL [1, 4]: 60% | Activity at 2 microgram/ml Without HGF/SF (result in words) ([2]; without HGF/SF): No effect | inhibition at 6 µg/mL ([2]; Homo sapiens, without HGF/SF): 30%
